According to patent publication US20250255929A1, “METHODS FOR REDUCING RISKS ASSOCIATED WITH HEART FAILURE AND FACTORS ASSOCIATED THEREWITH” (Stealth BioTherapeutics Inc., priority 2012, published 2025):
Where “and” joins values, the source holds several entries; their conditions need not be identical. Equal entries are not always repeated. Square brackets hold non-standard residues; d marks the D form. Ends that are not written are not given here. Dmt = Cc1cc(O)cc(C)c1C[C@H](N)C(=O)O

What was measured:
Type in all cases: in vivo
interleukin-6 (IL-6) = test: Plasma IL-6 (double antibody sandwich ELISA) in dog model of heart failure; conditions: plasma
Description: The methods of Example 1 were used to induce heart failure, administer peptide or vehicle and collect plasma. Fourteen dogs were used in this example. Half the dogs were treated with the mitochondrial peptide; the other half were treated with drug vehicle and served as controls. Peptide treatment was started in both groups upon induction of heart failure (HF), defined as left ventricular ejection fraction of approximately 30%.
IL-6 was quantified in EDTA-plasma using the double antibody sandwich ELISA technique. Briefly, IL-6 (Canine IL-6 Duo Set, Cat #DY1609) was purchased from R&D Systems. The assay was performed based on instructions provided by the supplier with minor modifications. The amount of EDTA-plasma incubated with the antibody plate was 150 μl and incubation time was 18 hours at 4° C. Using standard curves and software, the concentration of IL-6 was expressed as pg/ml.

C-reactive protein = test: Plasma C-reactive protein (canine ELISA) in dog model of heart failure; parameters: C-reactive protein concentration, BL, Mean / C-reactive protein concentration, 12 Wk, Mean / C-reactive protein concentration, BL / C-reactive protein concentration, 6 Wk / C-reactive protein concentration, 12 Wk: unit not given here; conditions: for plasma CRP levels (FIG. 1), in words: HF dogs
Description: (§1) Heart failure was induced in dogs via multiple sequential intracoronary microembolizations as described in Sabbah, et al., Am J Physiol. (1991) 260:H1379-84, herein incorporated by reference in its entirety.
Half the dogs were subsequently treated with the mitochondrial peptide; the other half were treated with drug vehicle and served as controls. Peptide treatment was started upon induction of heart failure (HF), defined as left ventricular ejection fraction of approximately 30%. Peripheral venous blood samples were obtained from all dogs at the following time points: 1) when the dogs were normal (baseline, prior to the induction of heart failure); 2) when the dogs were induced into heart failure; 3) at 6 weeks after initiating therapy with the mitochondrial peptide or vehicle (HF+peptide, or HF+vehicle) both administered once daily as subcutaneous injections; and 4) at 12 weeks after initiating therapy with the mitochondrial peptide or vehicle. The daily dose of the peptide was 0.5 mg/kg/day administered […]. Blood samples were drawn on EDTA anticoagulant and were centrifuged at 2,500 RPM and the plasma extracted, aliquoted in 1 ml volumes into crystat tubes and stored at −70° C. until assayed. Once the follow-up was completed in all dogs, the plasma samples were thawed to room temperature and CRP was assayed using a canine specific ELISA kit (ALPCO: Cat #41-CRPCA-E01). The calorimetric method was used to assess the amount of CRP in plasma. CRP concentration was expressed as […].

[1] = system: mitochondrial ATP-sensitive potassium channel (mK ATP); test: mK ATP activation in LV mitochondria (thallium-sensitive fluorophore assay), dog model of heart failure; conditions: LV mitochondria of HF dogs after three months, 0.5 mg/kg/day, n=5; control 1372±112, p<0.05
Description: as §1
(§2) Heart failure was induced as described in Example 1. […] Half the dogs were treated with the peptide (n=5); the other half were treated with drug vehicle and served as controls (n=5). Peptide treatment was started upon induction of heart failure (HF), defined as left ventricular ejection fraction of approximately 30%. The daily dose of the peptide was 0.5 mg/kg/day administered intravenously for three months. Subcutaneous daily injections of saline were administered to the controls. Left ventricular tissue was harvested at the end of the three months of treatment. Mitochondria were isolated from the tissue. MK ATP activation was measured using the thallium-sensitive fluorophore assay kit and quantified in relative fluorescence units (RFU) per mg protein. Mitochondrial ATP to ADP ratio was measured using the bioluminescent ApoSENSOR™ assay kit (Enzo Life Sciences, Farmingdale, NY).

[2] = system: reactive oxygen species (ROS); test: Plasma ROS (luminol chemiluminescence) in dog model of heart failure; conditions: for plasma ROS levels (FIG. 2), in words: HF dogs
Description: Heart failure was induced as described in Example 1. […] Half the dogs were treated with the peptide; the other half were treated with drug vehicle and served as controls. Peptide treatment was started upon induction of heart failure (HF), defined as left ventricular ejection fraction of approximately 30%. The daily dose of the peptide was 0.5 mg/kg/day administered intravenously. Blood samples were drawn on EDTA anticoagulant and were centrifuged at 2,500 RPM and the plasma extracted, aliquoted in 1 ml volumes into crystat tubes and stored at −70° C. until assayed. Once the follow-up was completed in all dogs, the plasma samples were thawed to room temperature and ROS was assayed. To assess ROS levels in the plasma, luminol (5-amino-2,3 dihydro-1,4 phtalazindione) was added to the samples. ROS levels were then assessed by chemiluminescence activity.

[3] = system: Mitochondrial ATP to ADP ratio; test: Mitochondrial ATP to ADP ratio (ApoSENSOR assay) in LV mitochondria, dog model of heart failure; conditions: LV mitochondria of HF dogs after three months, 0.5 mg/kg/day, n=5; control 0.38±0.04, p<0.05
Description: as §2

[4] = plasma, individual HF dogs, 6 weeks after initiating therapy, 0.5 mg/kg/day

Q: Which results are given for “D-Arg-2′,6′-Dmt-Lys-Phe-NH2 ([dR][Dmt]KF-NH2) [aromatic-cationic peptide]”?
A: IL-6 concentration, 6 Wk (interleukin-6 (IL-6); individual HF dogs, 6 weeks after initiating therapy): 18.8 pg/ml and 23.4 pg/ml and 24.3 pg/ml and 19.5 pg/ml and 19.6 pg/ml (2×) and 20.5 pg/ml; IL-6 concentration, 12 Wk (interleukin-6 (IL-6); individual HF dogs, 12 weeks after initiating therapy): 11.7 pg/mL and 11.3 pg/mL and 13.6 pg/mL and 11.5 pg/mL and 12.5 pg/mL and 11.9 pg/mL and 11.4 pg/mL; IL-6 concentration, 6 Wk, Mean (interleukin-6 (IL-6); mean of 7 HF dogs, 6 weeks after initiating therapy): 20.8 pg/mL; IL-6 concentration, 12 Wk, Mean (interleukin-6 (IL-6); mean of 7 HF dogs, 12 weeks after initiating therapy): 12.0 pg/mL; IL-6 concentration, BL, Mean (interleukin-6 (IL-6); peptide group mean (7 dogs), baseline (before HF and treatment)): 10.1 pg/mL; IL-6 concentration, PRE, Mean (interleukin-6 (IL-6); peptide group mean (7 dogs), heart failure prior to initiating therapy): 26.6 pg/mL; IL-6 concentration, BL (interleukin-6 (IL-6); peptide group, individual dogs, baseline (before HF and treatment)): 9.1 pg/mL and 5.8 pg/mL and 7.0 pg/mL and 12.6 pg/mL and 10.3 pg/mL and 12.5 pg/mL and 13.0 pg/mL; IL-6 concentration, PRE (interleukin-6 (IL-6); peptide group, individual dogs, heart failure prior to initiating therapy): 29.3 pg/mL and 18.5 pg/mL and 29.2 pg/mL and 18.0 pg/mL and 31.2 pg/mL and 29.4 pg/mL and 30.4 pg/mL; plasma CRP levels (FIG. 1), in words (C-reactive protein; treatment for 12 weeks): normal or near normal levels; plasma CRP levels (FIG. 1), in words (C-reactive protein; treatment for six weeks): reduced CRP levels; C-reactive protein concentration, 6 Wk (C-reactive protein; [4]): 1.12; C-reactive protein concentration, 12 Wk, Mean (C-reactive protein; plasma, mean of 3 HF dogs, 12 weeks after initiating therapy, 0.5 mg/kg/day): 1.42; C-reactive protein concentration, BL, Mean (C-reactive protein; plasma, peptide group mean (3 dogs), baseline, prior to induction of heart failure (before treatment)): 1.82; activation of mK ATP [1]: 2775±254 relative fluorescence units (R; plasma ROS levels (FIG. 2), in words ([2]; treatment for 12 weeks): near normal levels; plasma ROS levels (FIG. 2), in words ([2]; treatment for six weeks): reduced ROS levels; Reactive oxygen species concentration, 6 Wk [2, 4]: 18.4 RLU×10^5/ml and 16.6 RLU×10^5/ml and 15.1 RLU×10^5/ml and 23.3 RLU×10^5/ml; Reactive oxygen species concentration, 12 Wk ([2]; plasma, individual HF dogs, 12 weeks after initiating therapy, 0.5 mg/kg/day): 12.4 RLU×10^5/ml (2×) and 8.3 RLU×10^5/ml and 9.0 RLU×10^5/ml and 10.5 RLU×10^5/ml; Reactive oxygen species concentration, 12 Wk, Mean ([2]; plasma, mean of 5 HF dogs, 12 weeks after initiating therapy, 0.5 mg/kg/day): 10.5 RLU×10^5/ml; Reactive oxygen species concentration, 6 Wk, Mean ([2]; plasma, mean of HF dogs, 6 weeks after initiating therapy, 0.5 mg/kg/day): 18.4 RLU×10^5/ml; Reactive oxygen species concentration, BL, Mean ([2]; plasma, peptide group mean (5 dogs), baseline (before HF and treatment)): 5.3 RLU×10^5/ml; Reactive oxygen species concentration, PRE, Mean ([2]; plasma, peptide group mean, heart failure prior to initiating therapy): 20.7 RLU×10^5/ml; Reactive oxygen species concentration, BL ([2]; plasma, peptide group, individual dogs, baseline (before HF and treatment)): 5.5 RLU×10^5/ml and 3.9 RLU×10^5/ml and 6.8 RLU×10^5/ml and 5.7 RLU×10^5/ml and 4.7 RLU×10^5/ml; Reactive oxygen species concentration, PRE ([2]; plasma, peptide group, individual dogs, heart failure prior to initiating therapy): 23.6 RLU×10^5/ml and 18.5 RLU×10^5/ml and 14.6 RLU×10^5/ml and 26.0 RLU×10^5/ml; ATP/ADP (mitochondrial ATP to ADP ratio) [3]: 1.16±0.15
